Experimental data from PubChem BioAssay AID248 (DTP/NCI, 2004).
Toxic doses and inconclusive results are not listed.

Test system: L1210 leukemia ip in BDF1 mice, survival T/C
Assay: NCI In Vivo Anticancer Drug Screen. Data for tumor model L1210 Leukemia (intraperitoneal) in B6D2F1 (BDF1) mice
Details: endpoint: mean survival time, higher = longer survival
Method in brief: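 Transplantable tumor model; survival measured in treated vs vehicle control mice. Value = treated/control.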

[1] = dose: 100.0 mg/kg/injection, schedule: Q01DX001 (ip), vehicle: saline with Tween-80
[2] = dose: 50.0 mg/kg/injection, schedule: Q01DX009 (ip), vehicle: Klucel (hydroxypropylcellulose) (HPC)
[3] = dose: 50.0 mg/kg/injection, schedule: Q04DX003 (ip), vehicle: Klucel (hydroxypropylcellulose) (HPC)
[4] = dose: 200.0 mg/kg/injection, schedule: Q04DX003 (ip), vehicle: Klucel (hydroxypropylcellulose) (HPC)
[5] = dose: 100.0 mg/kg/injection, schedule: Q04DX003 (ip), vehicle: saline with Tween-80
[6] = dose: 400.0 mg/kg/injection, schedule: Q04DX003 (ip), vehicle: saline with Tween-80
[7] = dose: 200.0 mg/kg/injection, schedule: Q01DX001 (ip), vehicle: saline with Tween-80
[8] = dose: 400.0 mg/kg/injection, schedule: Q01DX001 (ip), vehicle: saline with Tween-80
[9] = dose: 100.0 mg/kg/injection, schedule: Q01DX009 (ip), vehicle: saline with Tween-80
[10] = dose: 200.0 mg/kg/injection, schedule: Q01DX009 (ip), vehicle: saline with Tween-80
[11] = dose: 100.0 mg/kg/injection, schedule: Q04DX003 (ip), vehicle: Klucel (hydroxypropylcellulose) (HPC)
[12] = dose: 400.0 mg/kg/injection, schedule: Q04DX003 (ip), vehicle: Klucel (hydroxypropylcellulose) (HPC)
[13] = dose: 25.0 mg/kg/injection, schedule: Q01DX009 (ip), vehicle: saline
[14] = dose: 100.0 mg/kg/injection, schedule: Q01DX001 (ip), vehicle: saline
[15] = dose: 200.0 mg/kg/injection, schedule: Q01DX001 (ip), vehicle: saline
[16] = dose: 400.0 mg/kg/injection, schedule: Q01DX001 (ip), vehicle: saline

O=S(=O)(Nc1cc(N2CCOCC2)c(O)c2ccccc12)c1ccccc1
T/C (dose: 25.0 mg/kg/injection, schedule: Q01DX001 (ip), vehicle: saline with Tween-80): 95 % of control
T/C (dose: 50.0 mg/kg/injection, schedule: Q01DX001 (ip), vehicle: saline with Tween-80): 97 % of control
T/C [1]: 94 % of control

Nc1nc(=S)c2[nH]c(N=Nc3ccc(S(N)(=O)=O)cc3)nc2[nH]1
T/C [2]: 97 % of control
T/C [3]: 151 % of control
T/C (dose: 100.0 mg/kg/injection, schedule: Q01DX009 (ip), vehicle: Klucel (hydroxypropylcellulose) (HPC)): 100 % of control
T/C (dose: 200.0 mg/kg/injection, schedule: Q01DX009 (ip), vehicle: Klucel (hydroxypropylcellulose) (HPC)): 100 % of control
T/C [4]: 94 % of control

CCSC(=O)C1OC(n2cnc3c(N)ncnc32)C2OC(C)(C)OC12 (stereo unspecified)
T/C (dose: 100.0 mg/kg/injection, schedule: Q01DX005 (ip), vehicle: saline): 100 % of control
T/C (dose: 200.0 mg/kg/injection, schedule: Q01DX005 (ip), vehicle: saline): 102 % of control

CC(C)c1ccc(N2C(=O)CSC2=S)cc1
T/C (dose: 100.0 mg/kg/injection, schedule: Q04DX002 (ip), vehicle: saline with Tween-80): 97 % of control
T/C (dose: 200.0 mg/kg/injection, schedule: Q04DX002 (ip), vehicle: saline with Tween-80): 87 % of control

N#CC(Oc1ccccc1)c1ccccc1 (stereo unspecified)
T/C [5]: 98 % of control
T/C [6]: 104 % of control

ON=C1CCC(=NO)CC1
T/C [1]: 95 % of control
T/C [7]: 98 % of control
T/C [8]: 103 % of control

O=C(/C=C\C=C\c1ccc2c(c1)OCO2)N1CCCCC1
T/C (dose: 50.0 mg/kg/injection, schedule: Q01DX009 (ip), vehicle: saline with Tween-80): 105 % of control
T/C [9]: 105 % of control
T/C [10]: 105 % of control

C=C1C2CCC(C2)C1(C)CC/C=C(/C)CO (stereo unspecified) (tested in a mixture with another compound)
T/C [11]: 96 % of control
T/C [4]: 96 % of control
T/C [12]: 93 % of control

CN(N(P(c1ccccc1)c1ccccc1)P(c1ccccc1)c1ccccc1)P(c1ccccc1)c1ccccc1
T/C (dose: 100.0 mg/kg/injection, schedule: Q01DX001 (ip), vehicle: steriod suspending solution): 110 % of control
T/C (dose: 400.0 mg/kg/injection, schedule: Q01DX001 (ip), vehicle: steriod suspending solution): 94 % of control

Cc1ccccc1CC#N
T/C (dose: 6.25 mg/kg/injection, schedule: Q01DX009 (ip), vehicle: saline): 108 % of control
T/C (dose: 12.5 mg/kg/injection, schedule: Q01DX009 (ip), vehicle: saline): 108 % of control
T/C [13]: 101 % of control

COc1cc2c(cc1OC)CN1CCC(=O)CC1C2 (stereo unspecified)
T/C [1]: 107 % of control
T/C [7]: 102 % of control
T/C [8]: 106 % of control

ONC(=Nc1ccccc1)c1ccccc1
T/C (dose: 100.0 mg/kg/injection, schedule: Q04DX003 (ip), vehicle: saline): 104 % of control
T/C (dose: 200.0 mg/kg/injection, schedule: Q04DX003 (ip), vehicle: saline): 101 % of control

COc1ncnc2c1ncn2C1CC(CO)C(O)C1O (stereo unspecified)
T/C [13]: 102 % of control
T/C (dose: 50.0 mg/kg/injection, schedule: Q01DX009 (ip), vehicle: saline): 95 % of control
T/C (dose: 100.0 mg/kg/injection, schedule: Q01DX009 (ip), vehicle: saline): 91 % of control

Cc1ccc(NCC(O)CN2CCN(CC(O)CNc3ccc(C)cc3)CC2)cc1 (stereo unspecified)
T/C (dose: 100.0 mg/kg/injection, schedule: Q01DX001 (ip), vehicle: other): 106 % of control
T/C [11]: 88 % of control
T/C (dose: 200.0 mg/kg/injection, schedule: Q01DX001 (ip), vehicle: other): 95 % of control
T/C [4]: 94 % of control
T/C (dose: 400.0 mg/kg/injection, schedule: Q01DX001 (ip), vehicle: other): 95 % of control
T/C [12]: 91 % of control

Cc1cc(NC(=O)/C=C/c2ccc([N+](=O)[O-])cc2Cl)ccc1S(=O)(=O)F
T/C [1]: 92 % of control
T/C [7]: 93 % of control
T/C [8]: 92 % of control

CCCNC(C)(C)C(SS)c1ccc(C(F)(F)F)cc1 (stereo unspecified)
T/C (dose: 12.5 mg/kg/injection, schedule: Q01DX009 (ip), vehicle: other): 89 % of control
T/C (dose: 12.5 mg/kg/injection, schedule: Q04DX003 (ip), vehicle: other): 94 % of control
T/C (dose: 25.0 mg/kg/injection, schedule: Q01DX009 (ip), vehicle: other): 95 % of control
T/C (dose: 25.0 mg/kg/injection, schedule: Q04DX003 (ip), vehicle: other): 96 % of control
T/C (dose: 50.0 mg/kg/injection, schedule: Q01DX009 (ip), vehicle: other): 95 % of control
T/C (dose: 50.0 mg/kg/injection, schedule: Q04DX003 (ip), vehicle: other): 89 % of control

COc1ccc(C(=O)C[N+](=O)[O-])cc1
T/C [9]: 94 % of control
T/C [5]: 106 % of control
T/C [10]: 99 % of control
T/C (dose: 200.0 mg/kg/injection, schedule: Q04DX003 (ip), vehicle: saline with Tween-80): 103 % of control
T/C [6]: 101 % of control

Cc1cc(C)c(NC(C)C)c(C)c1N
T/C (dose: 50.0 mg/kg/injection, schedule: Q04DX002 (ip), vehicle: Klucel (hydroxypropylcellulose) (HPC)): 92 % of control
T/C [14]: 104 % of control
T/C (dose: 100.0 mg/kg/injection, schedule: Q04DX002 (ip), vehicle: Klucel (hydroxypropylcellulose) (HPC)): 92 % of control
T/C [15]: 92 % of control
T/C (dose: 200.0 mg/kg/injection, schedule: Q04DX002 (ip), vehicle: Klucel (hydroxypropylcellulose) (HPC)): 95 % of control
T/C [16]: 93 % of control

CC(C)(C)C1Sc2nc3ccccc3n2C1=O (stereo unspecified)
T/C (dose: 12.5 mg/kg/injection, schedule: Q01DX009 (ip), vehicle: Klucel (hydroxypropylcellulose) (HPC)): 101 % of control
T/C (dose: 12.5 mg/kg/injection, schedule: Q04DX003 (ip), vehicle: Klucel (hydroxypropylcellulose) (HPC)): 98 % of control
T/C (dose: 25.0 mg/kg/injection, schedule: Q01DX009 (ip), vehicle: Klucel (hydroxypropylcellulose) (HPC)): 97 % of control
T/C (dose: 25.0 mg/kg/injection, schedule: Q04DX003 (ip), vehicle: Klucel (hydroxypropylcellulose) (HPC)): 92 % of control
T/C [2]: 96 % of control
T/C [3]: 92 % of control

CC1C(O)CN1C(C)(C)C (stereo unspecified)
T/C [14]: 105 % of control
T/C [15]: 106 % of control
T/C [16]: 108 % of control

O=C1c2ccccc2C(=O)c2c(O)c3c(c(O)c21)CC=CC3
T/C (dose: 0.25 mg/kg/injection, schedule: Q04DX003 (ip), vehicle: saline with Tween-80): 94 % of control
T/C (dose: 0.5 mg/kg/injection, schedule: Q04DX003 (ip), vehicle: saline with Tween-80): 104 % of control
T/C (dose: 1.0 mg/kg/injection, schedule: Q04DX003 (ip), vehicle: saline with Tween-80): 100 % of control
T/C (dose: 2.0 mg/kg/injection, schedule: Q04DX003 (ip), vehicle: saline with Tween-80): 104 % of control
T/C (dose: 4.0 mg/kg/injection, schedule: Q04DX003 (ip), vehicle: saline with Tween-80): 102 % of control
T/C (dose: 6.0 mg/kg/injection, schedule: Q04DX003 (ip), vehicle: saline with Tween-80): 102 % of control
T/C (dose: 8.0 mg/kg/injection, schedule: Q04DX003 (ip), vehicle: saline with Tween-80): 93 % of control
T/C (dose: 12.0 mg/kg/injection, schedule: Q04DX003 (ip), vehicle: saline with Tween-80): 103 % of control
T/C (dose: 16.0 mg/kg/injection, schedule: Q04DX003 (ip), vehicle: saline with Tween-80): 93 % of control
T/C (dose: 24.0 mg/kg/injection, schedule: Q04DX003 (ip), vehicle: saline with Tween-80): 102 % of control
T/C (dose: 32.0 mg/kg/injection, schedule: Q04DX003 (ip), vehicle: saline with Tween-80): 100 % of control
T/C (dose: 48.0 mg/kg/injection, schedule: Q04DX003 (ip), vehicle: saline with Tween-80): 103 % of control
T/C (dose: 64.0 mg/kg/injection, schedule: Q04DX003 (ip), vehicle: saline with Tween-80): 96 % of control
T/C (dose: 128.0 mg/kg/injection, schedule: Q04DX003 (ip), vehicle: saline with Tween-80): 105 % of control

O=P(CCC(F)(F)C(F)(F)C(F)(F)C(F)(F)C(F)(F)C(F)(F)C(F)(F)F)(N1CC1)N1CC1
T/C (dose: 75.0 mg/kg/injection, schedule: Q01DX001 (ip), vehicle: carboxymethylcellulose (CMC)): 108 % of control
